Experimental findings from US20230019491A1, “PYRIMIDINE TBK/IKKe INHIBITOR COMPOUNDS AND USES THEREOF” (Merck Patent GmbH, priority 2017, published 2023) are described below.

Molecules are shown by their SMILES. Structures can show the parent of a compound that is named as a salt.

One test deals with T1, IKKε (Homo sapiens, UniProt Q14164).
T1 sequence (Q14164 1-716): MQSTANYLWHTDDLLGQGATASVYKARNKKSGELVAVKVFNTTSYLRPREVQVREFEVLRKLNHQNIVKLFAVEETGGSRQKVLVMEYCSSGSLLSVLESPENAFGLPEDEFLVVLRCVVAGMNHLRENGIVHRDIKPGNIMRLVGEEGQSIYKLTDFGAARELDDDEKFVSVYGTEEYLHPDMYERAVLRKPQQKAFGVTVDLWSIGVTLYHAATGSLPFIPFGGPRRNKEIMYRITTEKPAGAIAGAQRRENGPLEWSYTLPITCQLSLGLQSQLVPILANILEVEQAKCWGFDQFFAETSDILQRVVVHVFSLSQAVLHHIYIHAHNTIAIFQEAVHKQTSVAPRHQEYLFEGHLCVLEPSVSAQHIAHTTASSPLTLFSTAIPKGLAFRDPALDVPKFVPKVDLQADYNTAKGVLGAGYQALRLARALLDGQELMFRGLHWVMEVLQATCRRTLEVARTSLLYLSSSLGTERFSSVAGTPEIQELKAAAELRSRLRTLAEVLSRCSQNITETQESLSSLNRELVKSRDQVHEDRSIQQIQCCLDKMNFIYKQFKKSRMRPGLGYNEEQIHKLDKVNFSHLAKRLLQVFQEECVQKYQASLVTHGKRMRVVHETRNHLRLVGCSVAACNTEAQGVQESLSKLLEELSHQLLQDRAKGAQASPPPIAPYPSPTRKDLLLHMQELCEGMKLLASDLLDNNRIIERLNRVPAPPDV
The test can be described thus: IKKε biochemical assay. Particulars: 10 point 1:4 dose response, 30 uM top concentration, 90 min at 25° C., LabChip EZ Reader II; read-out: IKKε_IC50. As for the experimental part:
(§1) Test compounds were transferred into Labcyte polypropylene 384 well plates (P055-25) and diluted to 3 mM using DMSO. […] 100 uM of a reference compound (1 uM final high concentration). Backfilling was performed if necessary so that all wells contain 1% DMSO final:
add 75 nl DMSO/well into columns 1, 2 and 24 using Labcyte Echo. add 75 nl 1.0 mM staurosporine/well into column 23 using Labcyte Echo (10 uM final) add 4.5 ul enzyme/well using multidrop dispenser add 3 ul substrate/well using multidrop dispenser incubate at 25° C. for 90 min. add 7.5 ul 2× stop buffer read on labchip ez reader II using IKKε.
(§2) Raw data files were opened in the Caliper LabChip Reviewer program (Version 3.0.265.0 SP2) and peak assignments were adjusted to reflect “substrate first” with the software's post-run analysis options. A spline-fit baseline was applied using the software's analysis algorithm.

Another test has as its target T2, TBK1 (Homo sapiens, UniProt Q9UHD2).
T2 sequence (Q9UHD2 1-729): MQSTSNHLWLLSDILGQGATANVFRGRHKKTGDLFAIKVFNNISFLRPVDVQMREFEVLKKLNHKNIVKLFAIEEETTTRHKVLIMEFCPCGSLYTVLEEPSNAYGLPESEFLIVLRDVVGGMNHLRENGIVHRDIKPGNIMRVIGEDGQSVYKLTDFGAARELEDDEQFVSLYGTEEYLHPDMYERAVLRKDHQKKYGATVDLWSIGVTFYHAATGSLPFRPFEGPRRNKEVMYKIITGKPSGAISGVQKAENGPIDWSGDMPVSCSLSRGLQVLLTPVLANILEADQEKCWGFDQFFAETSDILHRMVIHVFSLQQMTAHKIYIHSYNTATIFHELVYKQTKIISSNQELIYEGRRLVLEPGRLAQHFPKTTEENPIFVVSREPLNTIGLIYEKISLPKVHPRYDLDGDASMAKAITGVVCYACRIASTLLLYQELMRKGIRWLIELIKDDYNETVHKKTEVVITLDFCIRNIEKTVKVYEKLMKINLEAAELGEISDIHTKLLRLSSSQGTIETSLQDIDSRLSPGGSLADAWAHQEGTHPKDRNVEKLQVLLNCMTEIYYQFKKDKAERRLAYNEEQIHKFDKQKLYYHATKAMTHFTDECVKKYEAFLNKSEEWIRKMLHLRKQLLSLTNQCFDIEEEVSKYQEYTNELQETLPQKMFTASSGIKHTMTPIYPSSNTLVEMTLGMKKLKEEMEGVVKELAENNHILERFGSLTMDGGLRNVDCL
In words: TBK biochemical assay. Conditions: 10 point 1:4 dose response, 30 uM top concentration, 90 min at 25° C., LabChip EZ Reader II; read-out: TBK1_IC50. On the procedure: as §1
add 75 nl DMSO/well into columns 1, 2 and 24 using Labcyte Echo. add 75 nl 1.0 mM staurosporine/well into column 23 using Labcyte Echo ([…]) add 4.5 ul enzyme/well using multidrop dispenser add 3 ul substrate/well using multidrop dispenser incubate at 25° C. in Heidolph incubator for 90 min. add 7.5 ul 2× stop buffer using multidrop dispenser read on labchip ez reader II using TBK1.job
as §2

On to `COc1nc(Nc2nccc(-c3ccc(OC4CCN(C(=O)[C@@H]5CC5(F)F)CC4(F)F)c(C#N)c3)n2)ccc1N1CCN(C2COC2)CC1` (stereo partly drawn) [Example 255, 2-[1-((S)-2,2-Difluoro-cyclopropanecarbonyl)-3,3-difluoro-piperidin-4-yloxy]-5-{2-[6-methoxy-5-(4-oxetan-3-yl-piperazin-1-yl)-pyridin-2-ylamino]-pyrimidin-4-yl}-benzonitrile], for which the IC50 at IKKε and at TBK1 was less than 0.1 µM each time.

Take `COc1nc(Nc2ncc(F)c(-c3ccc(OC4CCOCC4)c(C#N)c3)n2)ccc1N1CCN(C)CC1` [Example 67, 5-{5-Fluoro-2-[6-methoxy-5-(4-methyl-piperazin-1-yl)-pyridin-2-ylamino]-pyrimidin-4-yl}-2-(tetrahydro-pyran-4-yloxy)-benzonitrile]: the IC50 on IKKε and on TBK1 was less than 0.1 µM throughout.

As to `COc1nc(Nc2nccc(-c3ccc(OC4CCN(C(=O)C(O)C5CC5)CC4(F)F)c(C#N)c3)n2)ccc1C1CCN(C2COC2)CC1` (stereo not shown) [Example 239, 2-[1-(2-Cyclopropyl-2-hydroxy-acetyl)-3,3-difluoro-piperidin-4-yloxy]-5-[2-(2-methoxy-1′-oxetan-3-yl-1′,2′,3′,4′,5′,6′-hexahydro-[3,4′]bipyridinyl-6-ylamino)-pyrimidin-4-yl]-benzonitrile], the IC50 on IKKε and at TBK1 was less than 0.1 µM in each case.

With `COc1nc(Nc2nccc(-c3ccc(O[C@@H]4CCN(C(=O)[C@H](C)O)C[C@@H]4F)c(C#N)c3)n2)ccc1N1CCN(C2COC2)CC1` [Example 331, 2-[[(3S,4R)-3-fluoro-1-[(2S)-2-hydroxypropanoyl]piperidin-4-yl]oxy]-5-[2-([6-methoxy-5-[4-(oxetan-3-yl)piperazin-1-yl]pyridin-2-yl]amino)pyrimidin-4-yl]benzonitrile], the IC50 on IKKε was 0.1 to 1 µM; on TBK1, less than 0.1 µM.

Turning to `C[C@H](O)C(=O)N1CCC(Oc2ccc(-c3ccnc(Nc4ccccn4)n3)cc2C#N)C(F)(F)C1` (stereo partly drawn) [Example 219, 2-(3,3-difluoro-1-((S)-2-hydroxypropanoyl)piperidin-4-yloxy)-5-(2-(pyridin-2-ylamino)pyrimidin-4-yl)benzonitrile], the IC50 at IKKε and at TBK1 was less than 0.1 µM in each case.

In the case of `COc1nc(Nc2nccc(-c3ccc(OC4CCN(C(=O)[C@@H]5CCC(=O)N5)CC4(F)F)c(C#N)c3)n2)ccc1N1CCN(C2COC2)CC1` (stereo partly drawn) [Example 256, 2,2-[3,3-Difluoro-1-((S)-5-oxo-pyrrolidine-2-carbonyl)-piperidin-4-yloxy]-5-{2-[6-methoxy-5-(4-oxetan-3-yl-piperazin-1-yl)-pyridin-2-ylamino]-pyrimidin-4-yl}-benzonitrile], the IC50 at IKKε and on TBK1 was less than 0.1 µM throughout.

With `CN1CCN(c2ccc(Nc3nccc(-c4ccc(OC5CCN(C)C5)c(C#N)c4)n3)nc2)CC1` (stereo not shown) [Example 82, 5-(2-[[5-(4-methylpiperazin-1-yl)pyridin-2-yl]amino]pyrimidin-4-yl)-2-[(1-methylpyrrolidin-3-yl)oxy]benzonitrile hydrochloride], the IC50 was 1 to 5 µM on IKKε and more than 5 µM at TBK1.

On to `COc1nc(Nc2nccc(-c3ccc(OC4CCN(C(=O)CO)CC4)c(C#N)c3)n2)ccc1N1CCN(C2COC2)CC1` [Example 186, 2-(1-(2-hydroxyacetyl)piperidin-4-yloxy)-5-(2-(6-methoxy-5-(4-(oxetan-3-yl)piperazin-1-yl)pyridin-2-ylamino)pyrimidin-4-yl)benzonitrile], for which the IC50 at IKKε and at TBK1 was less than 0.1 µM in each case.

For the compound `COc1nc(Nc2nccc(-c3ccc(OC4CCOCC4)c(C#N)c3)n2)ccc1CNC1CCN(C)CC1` [Example 41, 5-[2-[(6-methoxy-5-[[(1-methylpiperidin-4-yl)amino]methyl]pyridin-2-yl)amino]pyrimidin-4-yl]-2-(oxan-4-yloxy)benzonitrile hydrochloride], the IC50 on IKKε and at TBK1 was less than 0.1 µM each time.

On to `COc1nc(Nc2nccc(-c3ccc(OC4CCOCC4)c(C#N)n3)n2)ccc1C(=O)N1CCCCC1` [Example 30, 6-[2-([6-methoxy-5-[(piperidin-1-yl)carbonyl]pyridin-2-yl]amino)pyrimidin-4-yl]-3-(oxan-4-yloxy)pyridine-2-carbonitrile], for which the IC50 on IKKε and at TBK1 was less than 0.1 µM throughout.

As for `COc1nc(Nc2nccc(-c3ccc(OC4CCN(C)C4)c(C#N)c3)n2)ccc1N1CCN(C)CC1` (stereo not shown) [Example 87, 5-(2-[[6-methoxy-5-(4-methylpiperazin-1-yl)pyridin-2-yl]amino]pyrimidin-4-yl)-2-[(1-methylpyrrolidin-3-yl)oxy]benzonitrile], the IC50 at IKKε and on TBK1 was less than 0.1 µM throughout.

In the case of `C[C@@H](O)C(=O)N1CCC(Oc2ccc(-c3ccnc(Nc4ccccn4)n3)cc2C#N)C(F)(F)C1` (stereo partly drawn) [Example 221, 2-[3,3-Difluoro-1-((R)-2-hydroxy-propionyl)-piperidin-4-yloxy]-5-[2-(pyridin-2-ylamino)-pyrimidin-4-yl]-benzonitrile], the IC50 on IKKε and at TBK1 was 0.1 to 1 µM in each case.

Turning to `C[C@H](O)C(=O)N1CCC(Oc2ccc(-c3ccnc(Nc4ccc(N5CCN(C6COC6)CC5)cc4)n3)nc2C#N)C(F)(F)C1` (stereo partly drawn) [Example 306, 3-([33-difluoro-1-[(2S)-2-hydroxypropanoyl]piperidin-4-yl]oxy)-6-[2-([4-[4-(oxetan-3-yl)piperazin-1-yl]phenyl]amino)pyrimidin-4-yl]pyridine-2-carbonitrile], the IC50 on IKKε and on TBK1 was less than 0.1 µM throughout.

`COc1nc(Nc2nccc(-c3ccc(O[C@H]4CCN(C(=O)CO)C[C@H]4F)c(C#N)c3)n2)ccc1C(=O)N(C)C` [Example 75, 6-[[4-(3-cyano-4-[[(3R,4S)-3-fluoro-1-(2-hydroxyacetyl)piperidin-4-yl]oxy]phenyl)pyrimidin-2-yl]amino]-2-methoxy-N,N-dimethylpyridine-3-carboxamide hydrochloride]: the IC50 at IKKε and on TBK1 was less than 0.1 µM throughout.

Take `C[C@H](O)C(=O)N1CCC(Oc2ccc(-c3nc(Nc4ccc(N5CCN(C6COC6)CC5)cc4)ncc3F)cc2C#N)C(F)(F)C1` (stereo partly drawn) [Example 300, 2-({3,3-difluoro-1-[(2S)-2-hydroxypropanoyl]piperidin-4-yl}oxy)-5-[5-fluoro-2-({4-[4-(oxetan-3-yl)piperazin-1-yl]phenyl}amino)pyrimidin-4-yl]benzonitrile]: the IC50 at IKKε and on TBK1 was less than 0.1 µM each time.

Consider `COc1nc(Nc2nccc(-c3ccc(O[C@H]4CCN(C(=O)[C@H](C)O)CC4(F)F)c(C#N)c3)n2)ccc1N1CCN(C2COC2)CC1` [Example 121, 2-[[(4S)-3,3-difluoro-1-[(2S)-2-hydroxypropanoyl]piperidin-4-yl]oxy]-5-[2-([6-methoxy-5-[4-(oxetan-3-yl)piperazin-1-yl]pyridin-2-yl]amino)pyrimidin-4-yl]benzonitrile], for which, on TBK1, the IC50 was less than 0.1 µM.
